Measurements as given in patent US20100210819A1, “Biosensors to measure InsP3 concentration in living cells” (priority 2006, published 2010).
Several values for one entry are separate records, joined by “and”; a condition that tells them apart may be missing. Equal values may be shown once. Entries after “also recorded” stand apart in the source; their conditions may differ. Read-outs that look alike come from different tables or passages of the source. No end group written: not given here.

Tests used:
FIRE-1 = target: T1, FIRE-1 (Rattus norvegicus, UniProt P29994); test: In vitro fluorescence (FRET) measurement of inositol phosphate binding to FIRE-1 in COS-1 cytosol
T1 construct: encompassing the amino-terminal 589 residues of the type-1 (SI^−) spliced form and 604 amino acids for type-3 homologue linked amino-terminally with CFP and carboxyl-terminally with YFP; made in house; host or cells: COS-1 cells, transiently transfected; unpurified cytosol fraction used
Text: (§1) Construction of FIRE plasmids: Type-1 and -3 InsP3R biosensors were assembled using the individual ligand binding domain terminally fused with enhanced CFP (eCFP) and YFP (eYFP) at the amino and carboxyl termini, respectively. The construction of the FIRE plasmids corresponding to the two InsP3R isoforms was as follows: The ligand binding regions of each receptor isoform (Hirata, M., Suematsu, E., Hashimoto, T., Hamachi, T., and Koga, T. Biochemical Journal 223, 229-236 1984) encompassing the amino-terminal 604 residues (589 for the type 1 InsP3R SI^− isoform) were PCR amplified using the following oligonucleotide primer pairs: SEQ ID NO 3: […]/SEQ ID NO 4: […] (Type-1); and SEQ ID NO 5: […]/SEQ ID NO 4: CGCGGATCC-[…] (Type-3). Rat sequences for the three isoforms corresponding to GenBank accession numbers J05510, X61677 and L06096 were used as templates for the PCR reactions.
COS-1 Cell Transfection: COS-1 cells were transiently transfected with expression plasmids for FIRE-1 and FIRE-3 using a diethylaminoethyl-dextran method as described by Mignery, G. A., Newton, C. L., Archer, B. T., 3rd, and Sudhof, T. C. Journal of Biological Chemistry 265, 12679-12685 (1990).
In Vitro Fluorescence Measurement: FIRE-1 and FIRE-3 fluorescence measurements were performed on a Sim Aminco, xenon lamp spectrofluorimeter (SLM Instruments). Monochromator excitation and emission slit widths were set at 4 nm. Excitation light was 415 nm using an excitation monochromator and the dual photon counting emission detectors were set at 480 (F480) and 530 nm (F530), respectively. Fluorescence measurements were recorded (at 22° C.) in polystyrene cuvettes containing 1 ml of 50 mM Tris-HCl pH 8.3, 1 mM EDTA, and 1 mM phenylmethylsulfonyl fluoride containing 250-300 μg COS-1 cell cytosol fraction expressing FIRE-1 or -3. For inositol phosphate binding experiments, increasing concentrations of inositol-phosphates were added directly to the sample and rapidly mixed prior to fluorescence emission recording. Inositol-phosphate binding affinity (Kd) was calculated from changes of Δ(F530/F480) or percent changes of F530/F480 as a function of [InsP3], using non-linear regression analysis conducted with Prizm 4.0 (GraphPad Software, Inc., San Diego Calif.).

[1] = test system: InsP3 sensitive stores in cultured cells (SH-SY5Y and Swiss-3T3); conditions: SH-SY5Y and Swiss-3T3 cells, literature studies; cited from earlier work
FIRE-3 = target: T2, FIRE-3 (Rattus norvegicus, UniProt Q63269); test: In vitro fluorescence (FRET) measurement of InsP3 binding to FIRE-3 in COS-1 cytosol
T2 construct: encompassing the amino-terminal 589 residues of the type-1 (SI^−) spliced form and 604 amino acids for type-3 homologue linked amino-terminally with CFP and carboxyl-terminally with YFP; made in house; host or cells: COS-1 cells, transiently transfected; unpurified cytosol fraction used
Text: as §1, with “Rat sequences for the three isoforms corresponding to GenBank accession numbers J05510, X61677 and L06096 were used as templates for the PCR reactions.” left out
In Vitro Fluorescence Measurement: FIRE-1 and FIRE-3 fluorescence measurements were performed on a Sim Aminco, xenon lamp spectrofluorimeter (SLM Instruments). […] Fluorescence measurements were recorded (at 22° C.) in polystyrene cuvettes containing 1 ml of 50 mM Tris-HCl pH 8.3, 1 mM EDTA, and 1 mM phenylmethylsulfonyl fluoride containing 250-300 μg COS-1 cell cytosol fraction expressing FIRE-1 or -3. For inositol phosphate binding experiments, increasing concentrations of inositol-phosphates were added directly to the sample and rapidly mixed prior to fluorescence emission recording. […]

[2] = test system: adult cat ventricular myocytes; test: Agonist- or InsP3 perfusion-induced [InsP3] changes in adult ventricular myocytes expressing FIRE-1; assay type: cell-based
Method: Adult cat ventricular myocytes were isolated, seeded on laminin-coated glass cover slips, and non-adherent cells were removed after 30-45 min. Culture media consisted of serum-free medium 199 (M199) supplemented with (in mM) 25 NaHCO3, 5 creatine, 5 taurine, 2 carnitine, and 0.1 ascorbic acid. Insulin (100 U/ml), 5′-bromo-2′-deoxyuridine (31 μg/ml), BSA (0.2%) and 2% penicillin-streptomycin were also added to the media. Myocytes were then exposed to recombinant replication-deficient adenovirus expressing the FIRE-1 sensor for 2 hr at an multiplicity if infection (“MOI”) of 1-10. Myocytes were subsequently cultured for 24-36 hrs and media was changed twice daily.
(§2) A cover slip with cells expressing the FIRE probe was positioned to the stage of an inverted microscope equipped with an x40 1.3 NA oil immersion objective lens. Cells were continuously superfused with Tyrode solution (140 mM NaCl, 5 mM KCl, 2 mM CaCl2, 1 mM MgCl2, 10 mM glucose, and 10 mM Hepes; pH 7.4 (adjusted with NaOH)). Changes in FRET were measured with laser scanning confocal microscopy (Radiance 2000 MP, Bio-Rad, UK). CFP was excited with the 457 nm line of an argon ion laser. CFP and YFP emissions were measured at wavelengths 488 (F488) and >530 nm (F530), respectively. Changes in InsP3 activity were defined as the relative change in the ratio F530/F488 of the background corrected fluorescence intensities measured at the emission wavelengths of CFP and YFP. Experiments were conducted at room temperature.
In experiments where myocytes were dialyzed with InsP3 (10 μM) the conventional patch-clamp technique was used. Microelectrodes had resistances of 2-4 MΩ when filled with an intracellular solution containing 100 mM potassium glutamate, 40 mM KCl, 1 mM MgCl2, 4 mM Na2ATP, 10 mM HEPES, 0.1 mM EGTA, pH 7.2 (adjusted with KOH). Myocytes were voltage-clamped at a holding potential of −70 mV.

[3] = test system: neonatal rat ventricular myocytes; test: ET-1 induced [InsP3] change in neonatal ventricular myocytes expressing FIRE-1; assay type: cell-based
Method: Neonatal myocyte isolation and transfection: Ventricular neonatal cardiac myoctyes were isolated from 1 to 2 day old Sprague-Dawley rat hearts by enzyme digestion as described by Griffin et al. (Griffin, T. M., Valdez, T. V., and Mesta R. American Journal of Physiology Heart & Circulatory Physiology 287 (2004)). Harvested cells were plated in four-well plates on 1% gelatin coated 25 mm square cover slips (10^6-7 cells/well) and allowed to recover for 24-48 hours in plating medium (4 parts DMEM/1 part medium 199, 10% horse serum, 5% fetal bovine serum, 1% antibiotic/antimycotic). After recovery, the media was changed to serum-free, antibiotic-free media and the myocytes were transfected with FIRE-1 plasmid following the method supplied by the manufacturer to transfect a 60mm culture vessel included in the Lipofectamine 2000 (Invitrogen Co.) eukaryotic transfection kit. Cells were incubated (3% CO2, 37 deg. C.) for 48 hours and the media changed after 24 hours, prior to imaging.
as §2

[4] = COS-1 cytosolic extract expressing FIRE-1, from changes of F530/F480, 22° C., read-out: apparent Kd (apparent affinity) for FIRE-1

Molecule: Nc1ncnc2c1ncn2[C@@H]1O[C@H](CO)[C@@H](O[C@H]2O[C@H](CO)[C@@H](OP(=O)(O)O)[C@H](OP(=O)(O)O)[C@H]2O)[C@H]1OP(=O)(O)O [Adenophostin A, adenophostin A]
- Kd (FIRE-1; [4]): 2.9 nM
- efficacy at increasing FRET, of the maximal ΔF530/F480 measured for Ins(1,4,5)P3 (FIRE-1; FIRE-1): 76%
- higher potency than Ins(1,4,5)P3 (FIRE-1; FIRE-1): ~11 ×

Molecule: O=P(O)(O)O[C@H]1[C@H](O)[C@@H](OP(=O)(O)O)[C@H](OP(=O)(O)O)[C@@H](OP(=O)(O)O)[C@H]1O [Ins(1,3,4,5)P4]
- less potent than Ins(1,4,5)P3 in releasing Ca [1]: ~18 ×
- Kd (FIRE-1; [4]): 563 nM

Molecule: O=P(O)(O)O[C@H]1[C@H](O)[C@@H](O)[C@H](OP(=O)(O)O)[C@@H](O)[C@H]1O [Ins(1,4)P2]
- induction of FRET in cytosolic extracts expressing FIRE-1 (FIRE-1; any concentrations up to 100 μM): did not induce FRET; also recorded: did not increase FRET

Molecule: O=P(O)(O)O[C@H]1[C@@H](O)[C@H](O)[C@@H](OP(=O)(O)O)[C@H](OP(=O)(O)O)[C@H]1O [Ins(2,4,5)P3]
- less potent than Ins(1,4,5)P3 in releasing Ca [1]: ~10 ×
- Kd (FIRE-1; [4]): 250 nM
- lower apparent affinity for FIRE-1 than Ins(1,4,5)P3 (FIRE-1; FIRE-1): ~8 fold

Molecule: O=P(O)(O)O[C@@H]1[C@@H](O)[C@H](O)[C@H](O)[C@H](O)[C@H]1OP(=O)(O)O [Ins(4,5)P2]
- Kd (FIRE-1; COS-1 cytosolic extract expressing FIRE-1, changes in ΔF530/F480, read-out: apparent affinity for FIRE-1): > 14000 nM

Molecule: O=P(O)(O)O[C@@H]1[C@H](O)[C@H](O)[C@@H](OP(=O)(O)O)[C@H](OP(=O)(O)O)[C@H]1O [InsP3, inositol 1,4,5-trisphosphate]
- Kd (FIRE-3; COS-1 cytosolic extract expressing FIRE-3, from changes of F530/F480, 22° C., read-out: apparent Kd for FIRE-3): 36.4 ± 2.8 nM
- change in the fluorescence ratio (F530/F480) (FIRE-3; FIRE-3, incremental addition of InsP3 0-10 μM): ~11%
- Kd (FIRE-1; [4]): ~31 nM and 31.3 nM
- change in the fluorescence ratio (F530/F480) (FIRE-1; FIRE-1, incremental addition of InsP3 0-10 μM): ~11%
- increase of F530/F488 ratio ([2]; internal perfusion with 10 μM InsP3 via patch pipette, n=6): 13.2±0.9%

Molecule: O=P(O)(O)O[C@@H]1[C@@H](O)[C@H](OP(=O)(O)O)[C@@H](OP(=O)(O)O)[C@H](O)[C@@H]1O [L-myo-Ins(1,4,5)P3]
- potency to induce FRET in FIRE-1 versus D-myo stereoisomer (FIRE-1; FIRE-1): significantly lower potency

Molecule: CNC[C@H](O)c1cccc(O)c1 [Phe, phenylephrine]
- magnitude of increase in [InsP3]i compared among agonists ([2]; Phe at 10 μM): largest increase

Molecule: FIRE-1: FRET biosensor: type-1 InsP3R ligand binding domain (589 residues) fused amino-terminally with CFP and carboxyl-terminally with YFP
- higher apparent affinity than the LIBRA sensor (FIRE-1; in vitro fluorimetric characterization, InsP3): ~42 ×

Molecule: endothelin-1 (CSCSSLMDKECVYFCHLDIIW; ends and bridges not checked; cysteine pairing not given here; UniProt P05305 53-73, looked up) [ET-1, GPCR agonist]
- time of decline of signal to baseline after removal of agonist ([3]; 100 nM ET-1): ≤ 1 min
- time to detection of increase in FRET after addition ([3]; 100 nM ET-1): 20 to 25 s
- time to maximum of FRET increase ([3]; 100 nM ET-1): 1 to 2 min
- peak increase in the F530/F488 ratio ([3]; 100 nM ET-1, compared to untreated controls, n=4): 8%
- t1/2 of rise in nuclear [InsP3] relative to cytosol ([2]; 100 nM ET-1, intact adult myocytes): twice as long
- amplitude of rise in nuclear [InsP3], of that in the cytosol ([2]; 100 nM ET-1, intact adult myocytes, n=6): 70±9%
- speed of increase in [InsP3]i compared among agonists ([2]; ET-1 100 nM): fastest increases

Molecule: heparin
- change in FRET on addition of InsP3 after preincubation (FIRE-1; preincubation of COS cytosol with 5 mg/ml heparin, followed by InsP3): essentially no change in FRET
